# According to US8232070B2, “DNP63A gene and screening methods of anticancer agent by using it” (Seoul National University Industry Foundation, priority 2007, dated 2012):
# Peptide text beside a SMILES is read from it. * marks the point of attachment. Cbz = O=C(OCc1ccccc1)*
# How the values were obtained:
# ΔNp63α [1] = test: Intracellular location of GFP-fused ΔNp63α in transformed ME180 cells, fluorescence microscopy (FIG. 2); type: cell-based; settings: ME180 transformed with pEGFP-ΔNp63α
# Excerpt: The recombinant vector constructed by the present inventor had fused ΔNp63α next to pEGFP-C1. The advantage of GFP is to observe easily in microscopy because GFP emit the green light at the specific absorbance (Excitation maximum=488 nm; emission maximum=507 nm). […] GFP is inherently expressed all over the area of cell, however, it was identified that GFP expression was observed only in the nucleus after GFP fused with ΔNp63α.
# As a signal of cell death induction, the intracellular location and expression patterns of ΔNp63α were observed. In detail, it was observed variation aspect and cell location of ΔNp63α with a time span, 0 hr, 1 hr, 2 hr and 4 hr with fluorescence microscope, after cloning ΔNp63α gene into the vector expressing Green Fluorescence Protein (GFP), expressing for a certain time by transformation into carcinoma cell, treating TNF-α which induce cell death, carcinoma cells being transformed and then the protein being expressed for a certain time. As a result, it was observed similar aspect of aggreasome, which looks like complex of preteasome, because ΔNp63α, which had been known to locate only in nucleus, moved from nucleus to cytoplasm about 2 hr after treatment of TNF-α (FIG. 2). […]
# ΔNp63α [2] = test: ΔNp63α protein amount and stability in ME180 carcinoma cells after TNF-α treatment (cyclohexamide chase, FIG. 1); type: cell-based
# Protocol: After TNF-α treatment for 16 hours, cyclohexamide which inhibit protein synthesis was added and the samples were obtained at the indicated time-points and observed for changes of protein stability. As a result, the protein degradation began after 4 hours of treatment with cyclohexamide.
# Previously, ME180, ΔNp63α overexpressing carcinoma, was treated with TNF-α (tumor necrosis factor-alpha) which induces cell death. Also, the changes of the amount of ΔNp63α protein were observed. […] It is identified that such degradation of ΔNp63α was proceeded by specific mechanism, that is, by proteasome-mediated mechanism (FIG. 1). Protein degradation pathways could be usually classified in large into two groups, the first one is a degradation pathway by a protease after its polyubiquitination and movement to proteases, and the other one is a degradation pathway by a caspases.
Compound,change of ΔNp63α protein location after treatment (ΔNp63α [1]),"time at which ΔNp63α moved from nucleus to cytoplasm after treatment (ΔNp63α [1]; observed at 0 hr, 1 hr, 2 hr and 4 hr)","amount of ΔNp63α protein after treatment (ΔNp63α [2]; ME180 cells, ΔNp63α overexpressing carcinoma)","time at which ΔNp63α protein degradation began after addition of cyclohexamide (ΔNp63α [2]; TNF-α treatment for 16 hours, then cyclohexamide added)",ΔNp63α protein degradation with proteasome inhibitor co-treatment (ΔNp63α [2]; MG132 20 nM together with cyclohexamide after TNF-α treatment for 16 hours)
TNF-α,from the nucleus to the cytoplasm,about 2 hr,decreased rapidly,4 h,
"CC(C)C[C@@H](C=O)NC(=O)[C@H](CC(C)C)NC(=O)[C@H](CC(C)C)NC(=O)OCc1ccccc1 [MG132, reference compound] (Cbz-Leu-Leu-Leu-aldehyde)",,,,,wasn't degraded and stabilized even after 4 hours
